Laboratory results published in ChEMBL document CHEMBL1201862, “PubChem BioAssay data set” (2004).
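1) Cells in 96-well plates. 2) Compound, 48 h, 5 concentrations. 3) Linear interpolation between surrounding doses. 4) Unreached endpoint = highest concentration. GI50 = concentration required for 50% inhibition of growth.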 The source made the active and inactive calls. Cut-off read from the data, not from the text of the source: active = GI50 up to about 1.1 µM and inactive = higher.

Key:
Assay in all cases: NCI-60 cell line screen, 48 h
A549 = test system: A549
BT-549 = test system: BT-549
CAKI-1 = test system: CAKI-1
HCT-15 = test system: HCT-15
HL-60 = test system: HL-60
HOP-92 = test system: HOP-92
HT-29 = test system: HT-29
Hs-578T = test system: Hs-578T
KM12 = test system: KM12
M14 = test system: M14
MDA-MB-231 = test system: MDA-MB-231
MDA-N = test system: MDA-N
OVCAR-5 = test system: OVCAR-5
PC-3 = test system: PC-3
SF-268 = test system: SF-268
SF-295 = test system: SF-295
SF-539 = test system: SF-539
SK-MEL-2 = test system: SK-MEL-2
SR = test system: SR
TK-10 = test system: TK-10

Row | Structure (SMILES) | GI50 (A549) | GI50 (BT-549) | GI50 (CAKI-1) | GI50 (HCT-15) | GI50 (HL-60) | GI50 (HOP-92) | GI50 (HT-29) | GI50 (Hs-578T) | GI50 (KM12) | GI50 (M14) | GI50 (MDA-MB-231) | GI50 (MDA-N) | GI50 (OVCAR-5) | GI50 (PC-3) | GI50 (SF-268) | GI50 (SF-295) | GI50 (SF-539) | GI50 (SK-MEL-2) | GI50 (SR) | GI50 (TK-10)
1 | CC(CC(=O)O)C(C(=O)O)C(=O)O (configuration not stated) | > 100 µM (inactive) | > 100 µM (inactive) | > 100 µM (inactive) | > 100 µM | > 100 µM (inactive) | > 100 µM (inactive) | > 100 µM (inactive) | > 100 µM (inactive) | > 100 µM (inactive) | > 100 µM (inactive) | > 100 µM (inactive) | > 100 µM (inactive) | > 100 µM (inactive) | > 100 µM (inactive) | > 100 µM (inactive) | > 100 µM (inactive) | > 100 µM (inactive) | > 100 µM (inactive) | > 100 µM (inactive) | > 100 µM (inactive)
2 | CCS(=O)(=O)CCn1cnc2c1c(=O)n(C)c(=O)n2C | > 100 µM (inactive) | > 100 µM (inactive) | > 100 µM (inactive) | > 100 µM | > 100 µM (inactive) | > 100 µM (inactive) | > 100 µM (inactive) | > 100 µM (inactive) | > 100 µM (inactive) | > 100 µM (inactive) | > 100 µM (inactive) | > 100 µM (inactive) | > 100 µM (inactive) | > 100 µM (inactive) | > 100 µM (inactive) | > 100 µM (inactive) | > 100 µM (inactive) | > 100 µM (inactive) | 0.0318 µM (active) | > 100 µM (inactive)
3 | Cc1coc2c1CC1OC1(C)CCC1OC1(C)C2 (configuration not stated) | > 100 µM (inactive) | > 100 µM (inactive) | > 100 µM (inactive) | > 100 µM | > 100 µM (inactive) | > 100 µM (inactive) | – | > 100 µM (inactive) | > 100 µM (inactive) | > 100 µM (inactive) | > 100 µM (inactive) | > 100 µM (inactive) | > 100 µM (inactive) | > 100 µM (inactive) | > 100 µM (inactive) | > 100 µM (inactive) | > 100 µM (inactive) | > 100 µM (inactive) | > 100 µM (inactive) | > 100 µM (inactive)
4 | COc1ccc2c(c1O)[C@@]13CCCC=C1[C@@H](C2)N(C)CC3 | > 100 µM (inactive) | 34 µM (inactive) | > 100 µM (inactive) | > 100 µM | 21.4 µM (inactive) | 39.7 µM (inactive) | 32.1 µM (inactive) | 42.5 µM (inactive) | > 100 µM (inactive) | 79.6 µM (inactive) | 77.6 µM (inactive) | 61.5 µM (inactive) | > 100 µM (inactive) | 59.6 µM (inactive) | > 100 µM (inactive) | > 100 µM (inactive) | – | 36.7 µM (inactive) | 25.6 µM (inactive) | > 100 µM (inactive)
5 | Cc1sc2ncnc(NCCc3ccccc3)c2c1C | 14.7 µM (inactive) | 15.2 µM (inactive) | 7.53 µM (inactive) | 21.5 µM | 9.02 µM (inactive) | 0.94 µM (active) | 14.6 µM (inactive) | 20.7 µM (inactive) | 13.4 µM (inactive) | 18.1 µM (inactive) | 14.6 µM (inactive) | 10.1 µM (inactive) | 15.4 µM (inactive) | 17.3 µM (inactive) | 21.8 µM (inactive) | 4.78 µM (inactive) | 15 µM (inactive) | 14.8 µM (inactive) | 0.579 µM (active) | 11.4 µM (inactive)
6 | CCOC(=O)C(Cc1ccc(N(CCCl)CCCl)cc1)NC(=O)C(Cc1ccccc1)NC(C)=O (configuration not stated) | > 0.569 µM (active) | > 0.583 µM (active) | 0.111 µM (active) | > 0.378 µM | 0.0908 µM (active) | 0.621 µM (active) | – | > 0.368 µM (active) | > 0.338 µM (active) | 0.141 µM (active) | > 0.284 µM (active) | > 0.262 µM (active) | > 0.293 µM (active) | > 0.254 µM (active) | 0.126 µM (active) | > 0.326 µM (active) | 0.175 µM (active) | > 0.265 µM (active) | 0.153 µM (active) | –
7 | C=C1CN(C(=O)c2cc3cc(OC)c(OC)c(OC)c3[nH]2)c2cc([N+](=O)[O-])ccc21 | > 100 µM (inactive) | 61.2 µM (inactive) | > 100 µM (inactive) | > 100 µM | > 100 µM (inactive) | 33.8 µM (inactive) | > 100 µM (inactive) | 4.47 µM (inactive) | > 100 µM (inactive) | > 100 µM (inactive) | 17.5 µM (inactive) | > 100 µM (inactive) | > 100 µM (inactive) | > 100 µM (inactive) | 15.5 µM (inactive) | – | > 100 µM (inactive) | 34.8 µM (inactive) | > 100 µM (inactive) | 26.5 µM (inactive)
8 | Oc1c(Cl)ccc2cccnc12 | 3.96 µM (inactive) | 15.5 µM (inactive) | 3.25 µM (inactive) | 0.927 µM | 0.28 µM (active) | < 0.01 µM (active) | 18.4 µM (inactive) | 4.32 µM (inactive) | 4.88 µM (inactive) | 3 µM (inactive) | 3.76 µM (inactive) | 16.6 µM (inactive) | 5.87 µM (inactive) | 4.71 µM (inactive) | 2.72 µM (inactive) | 2.79 µM (inactive) | 3.4 µM (inactive) | – | 1.88 µM (inactive) | 4.36 µM (inactive)
9 | Nc1nc(Cl)cc(NCC2(O)CCCC2)n1 | > 100 µM (inactive) | > 100 µM (inactive) | > 100 µM (inactive) | > 100 µM | > 100 µM (inactive) | > 100 µM (inactive) | > 100 µM (inactive) | > 100 µM (inactive) | > 100 µM (inactive) | – | > 100 µM (inactive) | > 100 µM (inactive) | > 100 µM (inactive) | > 100 µM (inactive) | > 100 µM (inactive) | > 100 µM (inactive) | > 100 µM (inactive) | > 100 µM (inactive) | > 100 µM (inactive) | > 100 µM (inactive)
10 | O=C(CNC(c1ccccc1)(c1ccccc1)c1ccccc1)NC1CCCCC1NC(=O)CNC(c1ccccc1)(c1ccccc1)c1ccccc1 (configuration not stated) | > 100 µM (inactive) | > 100 µM (inactive) | > 100 µM (inactive) | > 100 µM | > 100 µM (inactive) | 12 µM (inactive) | > 100 µM (inactive) | 32.9 µM (inactive) | > 100 µM (inactive) | – | > 100 µM (inactive) | > 100 µM (inactive) | > 100 µM (inactive) | > 100 µM (inactive) | 24.2 µM (inactive) | > 100 µM (inactive) | > 100 µM (inactive) | > 100 µM (inactive) | > 100 µM (inactive) | > 100 µM (inactive)
11 | Cc1cc2c(c(/C=N/c3ccc([N+](=O)[O-])cc3)c1)OC1(C=C2)Oc2ccccc2C(=O)N1C (configuration not stated) | 28.2 µM (inactive) | 19.6 µM (inactive) | 13.8 µM (inactive) | 17.9 µM | 23.2 µM (inactive) | 24.1 µM (inactive) | 18.2 µM (inactive) | 27.2 µM (inactive) | 20 µM (inactive) | 23.3 µM (inactive) | 16.9 µM (inactive) | 24.8 µM (inactive) | 28.6 µM (inactive) | 18 µM (inactive) | 18.7 µM (inactive) | 24.4 µM (inactive) | – | 24.8 µM (inactive) | 12.3 µM (inactive) | 24.5 µM (inactive)
12 | COc1cc(/C=N/N=C2NCCCN2)ccc1O | > 100 µM (inactive) | > 100 µM (inactive) | – | > 100 µM | > 100 µM (inactive) | > 100 µM (inactive) | > 100 µM (inactive) | > 100 µM (inactive) | > 100 µM (inactive) | > 100 µM (inactive) | > 100 µM (inactive) | > 100 µM (inactive) | > 100 µM (inactive) | > 100 µM (inactive) | > 100 µM (inactive) | > 100 µM (inactive) | > 100 µM (inactive) | > 100 µM (inactive) | > 100 µM (inactive) | > 100 µM (inactive)
13 | CN(C)Cc1cc(C(=O)/C=C/c2ccccc2Cl)cc(CN(C)C)c1O | 14.9 µM (inactive) | 8.51 µM (inactive) | 3.56 µM (inactive) | 14.7 µM | 4.3 µM (inactive) | 18.1 µM (inactive) | 3.13 µM (inactive) | 18.3 µM (inactive) | 7.8 µM (inactive) | 11.2 µM (inactive) | 12.2 µM (inactive) | 13 µM (inactive) | 23.1 µM (inactive) | 13.2 µM (inactive) | 15.9 µM (inactive) | 14.6 µM (inactive) | 15.5 µM (inactive) | – | 5.6 µM (inactive) | 19.7 µM (inactive)
14 | O=C(O)c1cc2ccccc2c(Cc2c(O)c(C(=O)O)cc3ccccc23)c1O [PAMOIC ACID] | > 100 µM (inactive) | > 100 µM (inactive) | > 100 µM (inactive) | > 100 µM | > 100 µM (inactive) | > 100 µM (inactive) | > 100 µM (inactive) | > 100 µM (inactive) | > 100 µM (inactive) | > 100 µM (inactive) | > 100 µM (inactive) | > 100 µM (inactive) | > 100 µM (inactive) | > 100 µM (inactive) | > 100 µM (inactive) | > 100 µM (inactive) | – | > 100 µM (inactive) | > 100 µM (inactive) | > 100 µM (inactive)
15 | Cc1cc(NS(=O)(=O)c2ccc(Nc3c4ccccc4nc4c(C(=O)NC(CO)(CO)CO)cccc34)cc2)no1 | 48.1 µM (inactive) | 39.2 µM (inactive) | 42.2 µM (inactive) | 61.7 µM | 34.5 µM (inactive) | 32.7 µM (inactive) | 38.7 µM (inactive) | 25.1 µM (inactive) | 25.2 µM (inactive) | 52.5 µM (inactive) | 37.9 µM (inactive) | 37.3 µM (inactive) | 62.8 µM (inactive) | 31.3 µM (inactive) | 21.3 µM (inactive) | 41 µM (inactive) | – | 19.4 µM (inactive) | 26.3 µM (inactive) | 29.2 µM (inactive)
